Measurements taken from US8178552B2, “7-Azaindole derivatives and their use in the inhibition of c-Jun N-terminal kinase” (Eisai R&D Management Co., Ltd., priority 2008, dated 2012).

Legend:
panel of 100 kinases = assay: Selectivity against a panel of 100 kinases (Upstate/Millipore), expressed as Gini coefficient; type: biochemical; settings: calculated from remaining activity at 1 micromolar compound, 10 micromolar ATP, 0 = non-selective, 1 = perfect selectivity
Description: Inhibitory potency of compounds (I) at a concentration of 1 micromolar and with ATP concentration of 10 micromolar was determined at Upstate/Millipore against a panel of 100 kinases representing all major families within the kinome. The results are presented in Table 3 and are expressed as percentage of remaining activity.
For comparison purposes Table 4 contains the relevant inhibitory data for reference compounds A-K containing a (hetero)aromatic ring at C(5) of the 7-azaindole system.
Selectivity of compounds according to the present invention and reference compounds expressed as Gini coefficient (J. Med. Chem. 2007, 50, 5773-5779) is shown in Table 5. The individual Gini coefficients have been calculated using the data in Tables 3 and 4. Value Gini=0 corresponds to a totally non-selective compound; value Gini=1 reflects perfect selectivity (inhibition of a single target only)

TNFα = assay: LPS-induced TNFα suppression in mice (plasma TNFα, ELISA); type: in vivo, male C57/B16 mice; settings: Mus musculus, po; 20 mg/kg p.o. 30 min before LPS 10 mg/kg i.p.; 1 hour after LPS; versus vehicle-treated animals; read-out: Percentage reduction in the level of TNFα in plasma
Description: (§1) The studies were carried out in male C57/B16 mice. Compounds (20 mg/kg; p.o.) were administered 30 minutes before injection of lipopolysaccharide (LPS). LPS was administered intraperitoneally at a dose of 10 mg/kg. Animals were sacrificed 1 hour following LPS injection. Blood was collected into heparinized tubes for measurement of plasma TNFα levels and spleens were collected for the measurement of c-Jun phosphorylation. Plasma TNFα was measured using an ELISA kit purchased from R&D systems. Spleens were homogenised, extracted in high salt (250 mM NaCl) lysis buffer with phosphatase inhibitors and c-Jun phosphorylation was measured using HTRF. The suppressive effect of compounds was calculated as the percentage reduction of the TNFα level in plasma and P-c-Jun level in spleen as compared with the vehicle-treated animals.

JNK3 = JNK3 (Homo sapiens, UniProt P53779); assay: JNK3 SPA assay; type: biochemical; settings: 3.33 μM ATP, GST-c-Jun substrate; read-out: IC50 against JNK3
Outline: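 Radiometric SPA using GST-c-Jun with [γ-33P]ATP in 25 mM HEPES pH 7.5 and 10 mM Mg acetate; the substrate solution held 3.33 µM ATP (JNK2/3) or 2 µM ATP (JNK1). Reactions ran 30 min at room temperature and were stopped with glutathione SPA beads plus 40 mM ATP. IC50 is the concentration halving c-Jun phosphorylation versus control.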

c-Jun phosphorylation = assay: LPS-induced c-Jun phosphorylation in spleen of mice (HTRF); type: in vivo, male C57/B16 mice; settings: Mus musculus, po; 20 mg/kg p.o. 30 min before LPS 10 mg/kg i.p.; 1 hour after LPS; versus vehicle-treated animals; read-out: Percentage reduction in the level of P-c-Jun in spleen
Description: as §1

MOG (35-55)-induced EAE = assay: MOG (35-55)-induced experimental autoimmune encephalomyelitis (EAE) in mice; type: in vivo, C57/B16J mice; settings: 20 mg/kg, p.o., once daily, from appearance of symptoms
JNK2 = JNK2 (Homo sapiens, UniProt P45984); assay: JNK2 SPA assay; type: biochemical; settings: 3.33 μM ATP, GST-c-Jun substrate
Description: (§2) JNK1, JNK2, JNK3—SPA Assay
(§3) JNK1, JNK2, JNK3—SPA Assay • 1. Compound is dissolved in DMSO to a convenient concentration and this is diluted in 10% DMSO to a five times concentrate of the desired starting concentration (frequently 1:100). • 2. 10 μl of 500 mM EDTA is added to alternative wells of the Opti-plate row, which will receive kinase reaction plus DMSO. This creates the negative control. • 3. For the JNK2 and JNK3 assay, compounds are prepared in six 2-fold dilutions with water and each concentration is tested in duplicate. For the JNK1 assay compounds are prepared in four 5-fold dilutions with water which are tested in triplicate. Controls are treated identically. • 4. 20 μl per well of each compound concentration is transferred to an Opti-plate, in duplicate. • 5. 30 μl (JNK2/3 SPA) or 50 μl (JNK1 SPA) of substrate solution (25 mM HEPES pH 7.5, 10 mM magnesium acetate with 3.33 μM ATP (JNK2/3) or 2 μM ATP (JNK1), approximately 7.5 kBq [γ-^33P] ATP, GST-c-Jun, in water) is added to each well. • 6. 50 μl (JNK2/3 SPA) or 30 μl (JNK1 SPA) of kinase solution (JNK in 25 mM HEPES pH 7.5, 10 mM Mg Acetate) is added to each well.
(§4) • 7. The plate is incubated for 30 minutes at room temperature. • 8. […] Plates are sealed and incubated for 30 minutes at room temperature, centrifuged for 10 minutes at 2500 g and counted. • 10. […]

JNK1 = JNK1 (Homo sapiens, UniProt P45983); assay: JNK1 SPA assay; type: biochemical; settings: 2 μM ATP, GST-c-Jun substrate
Description: as §2, §3, §4

JNK3, sequence (P53779 whole entry, species assumed): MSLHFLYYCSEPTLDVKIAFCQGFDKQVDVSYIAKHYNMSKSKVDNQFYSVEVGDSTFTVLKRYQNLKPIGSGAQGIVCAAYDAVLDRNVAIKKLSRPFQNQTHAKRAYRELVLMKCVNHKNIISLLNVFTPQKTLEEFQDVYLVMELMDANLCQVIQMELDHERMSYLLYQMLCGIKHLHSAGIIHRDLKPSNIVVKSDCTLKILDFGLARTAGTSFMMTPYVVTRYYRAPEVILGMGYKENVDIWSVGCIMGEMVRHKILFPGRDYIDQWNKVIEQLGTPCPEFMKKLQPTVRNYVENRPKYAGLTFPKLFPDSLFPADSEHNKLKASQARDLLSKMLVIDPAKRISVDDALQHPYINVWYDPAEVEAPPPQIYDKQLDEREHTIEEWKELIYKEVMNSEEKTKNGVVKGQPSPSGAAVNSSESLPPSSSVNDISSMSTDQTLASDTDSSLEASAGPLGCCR
JNK2, sequence (P45984 whole entry, species assumed): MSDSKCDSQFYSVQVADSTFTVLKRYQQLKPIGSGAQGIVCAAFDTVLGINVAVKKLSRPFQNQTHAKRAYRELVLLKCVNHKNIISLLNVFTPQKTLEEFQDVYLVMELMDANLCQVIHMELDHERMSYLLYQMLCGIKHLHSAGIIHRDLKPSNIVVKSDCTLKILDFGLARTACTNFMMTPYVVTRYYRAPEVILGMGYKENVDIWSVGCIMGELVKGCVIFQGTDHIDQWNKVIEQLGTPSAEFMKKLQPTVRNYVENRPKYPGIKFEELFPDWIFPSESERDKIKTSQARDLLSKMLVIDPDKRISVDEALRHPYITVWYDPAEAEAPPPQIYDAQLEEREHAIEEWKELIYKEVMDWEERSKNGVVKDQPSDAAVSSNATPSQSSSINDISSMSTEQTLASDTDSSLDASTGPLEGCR
JNK1, sequence (P45983 whole entry, species assumed): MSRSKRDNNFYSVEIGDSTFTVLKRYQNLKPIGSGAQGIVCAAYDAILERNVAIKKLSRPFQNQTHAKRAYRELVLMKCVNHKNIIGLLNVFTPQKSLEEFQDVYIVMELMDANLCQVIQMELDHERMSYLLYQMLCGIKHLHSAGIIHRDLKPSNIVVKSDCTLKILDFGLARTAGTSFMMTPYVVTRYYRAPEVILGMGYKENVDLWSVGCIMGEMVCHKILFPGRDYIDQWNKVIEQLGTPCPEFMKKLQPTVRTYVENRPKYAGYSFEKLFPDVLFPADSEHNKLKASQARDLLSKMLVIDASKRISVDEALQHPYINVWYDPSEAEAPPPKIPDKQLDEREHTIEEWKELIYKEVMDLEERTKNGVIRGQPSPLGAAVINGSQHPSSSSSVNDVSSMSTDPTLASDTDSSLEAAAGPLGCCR

IC50 (JNK3) [nM] | Compound | Gini coefficient, reference compounds, aromatic C(5) group (panel of 100 kinases) | inhibition in vivo at 20 mg/kg (TNFα) [%] | inhibition in vivo at 20 mg/kg (c-Jun phosphorylation) [%] | also measured
– | CN(C)c1ccc(-c2cnc3[nH]cc(-c4cn[nH]c4)c3c2)cc1 [A] | 0.3368 | – | – | –
80 | Cn1cc(-c2c[nH]c3ncc([C@H]4CC[C@H](N5CCOCC5)CC4)cc23)cn1 [Compound I-6, 4-((1r,4r)-4-(3-(1-methyl-1H-pyrazol-4-yl)-1H-pyrrolo[2,3-b]pyridin-5-yl)cyclohexyl)morpholine] | – | 82 | 41 | total white matter area in the lumbar spinal cord (MOG (35-55)-induced EAE; FIG. 10): preservation; neuronal numbers in the ventral horn of the lumbar spinal cords (MOG (35-55)-induced EAE; FIG. 11): preservation; demyelination in the lumbar spinal cord (MOG (35-55)-induced EAE; FIG. 12): decrease
– | CN1CCN(C(=O)c2nc(-c3c[nH]c4ncc(-c5ccc(N6CCN(C)CC6)cc5)cc34)cs2)CC1 [J] | 0.3286 | – | – | –
– | CC1CCC(c2cnc3[nH]cc(-c4cnn(C)c4)c3c2)CC1 (stereo not drawn) [compound 3] | – | – | – | IC50 (JNK2): 501 nM; IC50 (JNK1): 178 nM
– | CN1CCC(c2csc(-c3cnc4[nH]cc(-c5cnn(C)c5)c4c3)n2)CC1 [E] | 0.3757 | – | – | –
– | CN1CCN([C@H]2CC[C@H](c3cnc4[nH]cc(-c5cnn(C)c5)c4c3)CC2)CC1 [compound 25] | – | – | – | IC50 (JNK2): 245 nM; IC50 (JNK1): 191 nM; Gini coefficient, compounds (I), non-aromatic C(5) group (panel of 100 kinases): 0.6769
189 | Cn1cc(-c2c[nH]c3ncc([C@H]4CC[C@H](N(C)C)CC4)cc23)cn1 [Compound I-71, (1r,4r)-N,N-dimethyl-4-(3-(1-methyl-1H-pyrazol-4-yl)-1H-pyrrolo[2,3-b]pyridin-5-yl)cyclohexanamine] | – | 86 | 7 | –
– | CN(C)C(=O)c1nc(-c2c[nH]c3ncc(-c4ccccc4)cc23)cs1 [G] | 0.3501 | – | – | –
58 | CC1CCC(c2cnc3[nH]cc(-c4cnn(C)c4)c3c2)CC1 (mixture of isomers) [Compound I-3, 3-(1-methyl-1H-pyrazol-4-yl)-5-(4-methylcyclohexyl)-1H-pyrrolo[2,3-b]pyridine] | – | 60 | 0 | –
